This passage reports Ki results from ChEMBL document CHEMBL1149249 (J Med Chem, 2004).

Usually Ki stands for the dissociation constant of the complex between target and ligand, obtained from inhibition or displacement. A higher Ki goes with a looser hold on the target.

One experiment has as its target Adenosine receptor A2a (Rattus norvegicus, UniProt P30543). The experiment is described as follows: Displacement of [3H]ZM241385 from adenosine A2A receptor in rat brain membrane. Format: cell membranes. For orientation: Loss of bound radioactivity is the signal in a displacement assay; it reports binding, not function.
The next experiment concerns the target T1, Adenosine receptor A1 (Rattus norvegicus, UniProt P25099).
T1 sequence (P25099 whole entry): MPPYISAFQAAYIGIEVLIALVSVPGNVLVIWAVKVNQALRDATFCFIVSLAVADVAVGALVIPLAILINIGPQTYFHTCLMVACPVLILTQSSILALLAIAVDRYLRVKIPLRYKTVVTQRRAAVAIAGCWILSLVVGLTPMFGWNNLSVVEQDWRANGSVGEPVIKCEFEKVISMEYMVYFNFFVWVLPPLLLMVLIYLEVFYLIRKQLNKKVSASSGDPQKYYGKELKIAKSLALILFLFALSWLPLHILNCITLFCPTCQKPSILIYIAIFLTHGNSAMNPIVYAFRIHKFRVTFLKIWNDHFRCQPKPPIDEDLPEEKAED
The experiment is described as follows: Displacement of [3h]DPCPX from adenosine A receptor in rat cerebral cortex membrane.

The structures appear in SMILES notation.

Chain of Adenosine receptor A2a (P30543 whole entry): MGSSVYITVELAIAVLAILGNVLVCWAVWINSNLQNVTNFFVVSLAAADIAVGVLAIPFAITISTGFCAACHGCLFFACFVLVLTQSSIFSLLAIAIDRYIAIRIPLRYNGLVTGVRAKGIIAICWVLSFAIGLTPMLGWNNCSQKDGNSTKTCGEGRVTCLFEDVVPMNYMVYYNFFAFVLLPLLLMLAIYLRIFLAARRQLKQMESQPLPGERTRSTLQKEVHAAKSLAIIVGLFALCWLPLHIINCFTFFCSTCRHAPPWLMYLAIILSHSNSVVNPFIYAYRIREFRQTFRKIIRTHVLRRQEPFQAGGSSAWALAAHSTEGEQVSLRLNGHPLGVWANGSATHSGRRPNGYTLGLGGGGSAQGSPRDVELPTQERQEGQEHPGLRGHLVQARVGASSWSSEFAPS

As to `Nc1nc(N2CCN3CCC[C@H]3C2)cc2nc(-c3ccco3)nn12`, the Ki is 110 nM (antagonist) on Adenosine receptor A2a and above 500 nM on Adenosine receptor A1.

Regarding `Nc1nc(N2CCN3C[C@H](CNc4ncccn4)CC[C@H]3C2)nc2nc(-c3ccco3)nn12`, the Ki on Adenosine receptor A2a is 45 nM (antagonist); on Adenosine receptor A1, above 1000 nM.

On to `Nc1nc(N2CCN3C[C@@H](CN(Cc4ccco4)Cc4ccco4)CC[C@H]3C2)nc2nc(-c3ccco3)nn12`, for which the Ki at Adenosine receptor A2a is 47 nM (antagonist); at Adenosine receptor A1 it was above 1000 nM.

Consider `Nc1nc(NC[C@@H]2CC[C@@H]3CN(Cc4ccc(F)cc4F)CCN3C2)cc2nc(-c3ccco3)nn12`, for which the figures for the Ki at Adenosine receptor A2a and at Adenosine receptor A1 were 230 nM (antagonist) and above 1000 nM, respectively.

As to `Nc1nc(N2CCN3C[C@@H](CNCc4ccc(F)cc4F)CC[C@H]3C2)nc2nc(-c3ccco3)nn12`, the Ki on Adenosine receptor A2a is 2 nM (antagonist); at Adenosine receptor A1, 1100 nM.

On to `Nc1cc(N2CCN3CCC[C@H]3C2)nc2nc(-c3ccco3)nn12`, for which the inhibitory constant (Ki) at Adenosine receptor A2a was 170 nM (antagonist); on Adenosine receptor A1, above 500 nM.

As for `Nc1nc(N2CCN3C[C@H](CN(Cc4cccnc4)Cc4cccnc4)CC[C@H]3C2)nc2nc(-c3ccco3)nn12`, the inhibition constant Ki on Adenosine receptor A2a was 4 nM (antagonist); on Adenosine receptor A1, 7800 nM.

Take `Nc1nc(N2CCN3C[C@@H](CNc4ncccn4)CC[C@H]3C2)cc2nc(-c3ccco3)nn12`: the inhibition constant Ki at Adenosine receptor A2a is 47 nM (antagonist); on Adenosine receptor A1, above 1000 nM.

For `Nc1nc(N2CCN3C[C@H](COc4ccc5ccccc5n4)CC[C@H]3C2)nc2nc(-c3ccco3)nn12`, the inhibition constant (Ki) at Adenosine receptor A2a was 7 nM (antagonist); at Adenosine receptor A1, above 1000 nM.

Turning to `NC[C@@H]1CC[C@H]2CN(c3nc(N)n4nc(-c5ccco5)nc4n3)CCN2C1`, the results for the Ki at Adenosine receptor A2a and on Adenosine receptor A1 were 2 nM (antagonist) and 3500 nM, respectively.

`Nc1nc(N2CCN3C[C@@H](CN(Cc4ccc(F)cc4F)Cc4ccc(F)cc4F)CC[C@H]3C2)nc2nc(-c3ccco3)nn12`: the Ki was above 500 nM at Adenosine receptor A2a and above 1000 nM at Adenosine receptor A1.

Turning to `Nc1nc(N2C[C@@H]3CCCN3C[C@@H]2Cc2ccccc2)nc2nc(-c3ccco3)nn12`, the Ki on Adenosine receptor A2a is 490 nM (antagonist); at Adenosine receptor A1 it was above 1000 nM.

For the compound `Nc1nc(N2CCN3C[C@@H](CN(Cc4ccccn4)Cc4ccccn4)CC[C@H]3C2)nc2nc(-c3ccco3)nn12`, the inhibition constant Ki on Adenosine receptor A2a was 9 nM (antagonist); at Adenosine receptor A1, above 500 nM.

Turning to `Nc1nc(N2CCN3C[C@@H](CN(Cc4cccnc4)Cc4cccnc4)CC[C@H]3C2)nc2nc(-c3ccco3)nn12`, the Ki on Adenosine receptor A2a is 2 nM (antagonist); on Adenosine receptor A1, above 1000 nM.

On to `Cc1nn(C)c(Cl)c1CN(Cc1c(C)nn(C)c1Cl)C[C@H]1CC[C@H]2CN(c3nc(N)n4nc(-c5ccco5)nc4n3)CCN2C1`, for which the figures for the Ki at Adenosine receptor A2a and at Adenosine receptor A1 were 180 nM (antagonist) and above 1000 nM, respectively.

On to `NC[C@@H]1CC[C@H]2CN(c3cc(N)n4nc(-c5ccco5)nc4n3)CCN2C1`, for which the Ki at Adenosine receptor A2a is 370 nM (antagonist); on Adenosine receptor A1 it was above 500 nM.

On to `NC[C@H]1CC[C@H]2CN(c3cc(N)n4nc(-c5ccco5)nc4n3)CCN2C1`, for which the Ki at Adenosine receptor A2a was 110 nM (antagonist); on Adenosine receptor A1 it was above 500 nM.

For the compound `Nc1nc(N2CCN3C[C@@H](CNCc4cccnc4)CC[C@H]3C2)nc2nc(-c3ccco3)nn12`, the Ki was 51 nM (antagonist) on Adenosine receptor A2a and above 500 nM on Adenosine receptor A1.

On to `Nc1nc(N2CCNCC2)nc2nc(-c3ccco3)nn12`, for which, at Adenosine receptor A2a, the Ki was above 5000 nM.

`Nc1nc(N2CCN3CCC[C@@H]3C2)cc2nc(-c3ccco3)nn12`: the values for the inhibition constant Ki at Adenosine receptor A2a and at Adenosine receptor A1 were 63 nM (antagonist) and 1100 nM, respectively.

For `NC[C@H]1CC[C@H]2CN(c3cc4nc(-c5ccco5)nn4c(N)n3)CCN2C1`, the inhibition constant (Ki) was 56 nM (antagonist) on Adenosine receptor A2a and above 500 nM at Adenosine receptor A1.

Consider `Cc1nn(C)c(Cl)c1CNC[C@H]1CC[C@H]2CN(c3nc(N)n4nc(-c5ccco5)nc4n3)CCN2C1`, for which the inhibition constant Ki at Adenosine receptor A2a is 30 nM (antagonist); on Adenosine receptor A1, above 500 nM.

As to `Nc1nc(N2CCN3C[C@H](COc4cccc(F)c4)CC[C@H]3C2)nc2nc(-c3ccco3)nn12` (mixture of isomers), the inhibition constant Ki on Adenosine receptor A2a is 53 nM (antagonist); at Adenosine receptor A1, 960 nM (antagonist).

Turning to `Nc1cc(N2CCN3[C@@H](COc4ccc5[nH]ccc5c4)CCC[C@H]3C2)nc2nc(-c3ccco3)nn12` (racemic), the inhibitory constant (Ki) is 76 nM (antagonist) at Adenosine receptor A2a and above 1000 nM on Adenosine receptor A1.

On to `Nc1nc(N2CCN3C[C@@H](Cn4cncn4)CC[C@H]3C2)nc2nc(-c3ccco3)nn12` (racemic), for which the Ki was 4 nM (antagonist) at Adenosine receptor A2a and above 500 nM on Adenosine receptor A1.

For the compound `Nc1nc(N2CCN3C[C@@H](CN(Cc4ccncc4)Cc4ccncc4)CC[C@H]3C2)nc2nc(-c3ccco3)nn12` (racemic), the Ki at Adenosine receptor A2a was 3 nM (antagonist); on Adenosine receptor A1 it was 6000 nM.

For the compound `Nc1nc(N2CCN3C[C@H](COc4ccncc4)CC[C@H]3C2)nc2nc(-c3ccco3)nn12` (racemic), the figures for the Ki on Adenosine receptor A2a and at Adenosine receptor A1 were 81 nM (antagonist) and above 1000 nM, respectively.

For the compound `Nc1cc(N2CCN3[C@@H](COc4ccc5cccnc5c4)CCC[C@H]3C2)nc2nc(-c3ccco3)nn12` (racemic), the results for the Ki at Adenosine receptor A2a and at Adenosine receptor A1 were 830 nM (antagonist) and above 500 nM, respectively.

In the case of `Nc1nc(N2CCN3C[C@@H](CNc4ncccn4)CC[C@H]3C2)nc2nc(-c3ccco3)nn12` (racemic), the Ki on Adenosine receptor A2a was 9 nM (antagonist); at Adenosine receptor A1 it was 1500 nM.

On to `Nc1nc(N2CCN3C[C@@H](Cn4cnnn4)CC[C@H]3C2)nc2nc(-c3ccco3)nn12` (racemic), for which the inhibition constant Ki was 14 nM (antagonist) at Adenosine receptor A2a and above 500 nM at Adenosine receptor A1.

On to `Nc1nc(N2CCN3C[C@@H](COc4ccc(F)cc4F)CC[C@H]3C2)nc2nc(-c3ccco3)nn12` (racemic), for which the Ki at Adenosine receptor A2a is 70 nM (antagonist); on Adenosine receptor A1, above 500 nM.

For the compound `Nc1cc(N2CCN3[C@@H](COc4cccnc4)CCC[C@H]3C2)nc2nc(-c3ccco3)nn12` (racemic), the inhibition constant (Ki) on Adenosine receptor A2a is 80 nM (antagonist); at Adenosine receptor A1, above 500 nM.

On to `Nc1nc(N2CCN3C[C@@H](COc4cccc5cnccc45)CC[C@H]3C2)nc2nc(-c3ccco3)nn12` (racemic), for which the inhibition constant (Ki) was 6 nM (antagonist) on Adenosine receptor A2a and 3500 nM on Adenosine receptor A1.

For `Nc1nc(N2CCN3C[C@H](COc4ncnc5ccccc45)CC[C@H]3C2)nc2nc(-c3ccco3)nn12` (racemic), the Ki on Adenosine receptor A2a is 37 nM (antagonist); at Adenosine receptor A1, above 1000 nM.

As for `Nc1nc(N2CCN3C[C@@H](COc4cc5ccccc5cn4)CC[C@H]3C2)nc2nc(-c3ccco3)nn12` (racemic), the Ki was 36 nM (antagonist) on Adenosine receptor A2a and above 1000 nM at Adenosine receptor A1.

Turning to `Nc1nc(N2CCN3C[C@H](COc4cccc5cnccc45)CC[C@H]3C2)nc2nc(-c3ccco3)nn12` (racemic), the inhibition constant Ki on Adenosine receptor A2a is on record as 73 nM (antagonist); on Adenosine receptor A1, 210 nM (antagonist).

`Nc1nc(N2CCN3C[C@@H](COc4ncnc5ccccc45)CC[C@H]3C2)nc2nc(-c3ccco3)nn12` (racemic): the Ki at Adenosine receptor A2a is 19 nM (antagonist); at Adenosine receptor A1 it was above 500 nM.

As to `Nc1nc(N2CCN3C[C@H](COc4cc5ccccc5cn4)CC[C@H]3C2)nc2nc(-c3ccco3)nn12` (racemic), the inhibitory constant (Ki) on Adenosine receptor A2a was 130 nM (antagonist); on Adenosine receptor A1, 710 nM (antagonist).

In the case of `Nc1nc(N2CCN3C[C@@H](COc4cccnc4)CC[C@H]3C2)nc2nc(-c3ccco3)nn12` (racemic), the inhibitory constant (Ki) at Adenosine receptor A2a was 0.3 nM (antagonist); on Adenosine receptor A1 it was 1400 nM.

As to `Nc1nc(NC[C@@H]2CC[C@@H]3CN(Cc4ccc(F)cc4F)CCN3C2)nc2nc(-c3ccco3)nn12` (racemic), the Ki on Adenosine receptor A2a was 130 nM (antagonist); on Adenosine receptor A1, above 500 nM.

Take `Nc1nc(NC[C@H]2CC[C@@H]3CN(c4ncccn4)CCN3C2)nc2nc(-c3ccco3)nn12` (racemic): the figures for the Ki at Adenosine receptor A2a and at Adenosine receptor A1 were 230 nM (antagonist) and above 1000 nM, respectively.

In the case of `Cn1nc(C(F)(F)F)c(CN2CCN3C[C@@H](CNc4nc(N)n5nc(-c6ccco6)nc5n4)CC[C@@H]3C2)c1Cl` (racemic), the Ki on Adenosine receptor A2a is above 500 nM; on Adenosine receptor A1, above 1000 nM.

As for `COC(=O)c1nc(Cl)c(N2CCN3C[C@H](CNc4nc(N)n5nc(-c6ccco6)nc5n4)CC[C@@H]3C2)nc1N` (racemic), the inhibition constant Ki at Adenosine receptor A2a is 34 nM (antagonist); on Adenosine receptor A1, above 1000 nM.

In the case of `Nc1nc(N2CCN3C[C@@H](CNCc4ccncc4)CC[C@H]3C2)nc2nc(-c3ccco3)nn12` (racemic), the values for the Ki on Adenosine receptor A2a and on Adenosine receptor A1 were 36 nM (antagonist) and above 500 nM, respectively.

In the case of `Nc1nc(NC[C@@H]2CC[C@@H]3CN(c4cc(F)cc(F)c4)CCN3C2)nc2nc(-c3ccco3)nn12` (racemic), the figures for the Ki on Adenosine receptor A2a and on Adenosine receptor A1 were 49 nM (antagonist) and above 500 nM, respectively.

`Nc1nc(N2CCN3C[C@@H](COc4ncnc5[nH]ncc45)CC[C@@H]3C2)nc2nc(-c3ccco3)nn12` (racemic): the Ki is 5 nM (antagonist) at Adenosine receptor A2a and above 500 nM on Adenosine receptor A1.

With `Nc1nc(N2CCN3C[C@@H](Cn4ccnc4)CC[C@H]3C2)nc2nc(-c3ccco3)nn12` (racemic), the inhibition constant (Ki) was 0.3 nM (antagonist) at Adenosine receptor A2a and 1200 nM at Adenosine receptor A1.

`Nc1nc(N2CCN3C[C@@H](COc4ccncc4)CC[C@H]3C2)nc2nc(-c3ccco3)nn12` (racemic): the Ki was 25 nM (antagonist) on Adenosine receptor A2a and above 1000 nM on Adenosine receptor A1.

Regarding `Nc1nc(N2CCN3C[C@H](COc4ccccn4)CC[C@H]3C2)nc2nc(-c3ccco3)nn12` (racemic), the figures for the inhibition constant (Ki) at Adenosine receptor A2a and at Adenosine receptor A1 were 41 nM (antagonist) and above 500 nM, respectively.

`Nc1nc(N2CCN3C[C@@H](COc4ccccn4)CC[C@H]3C2)nc2nc(-c3ccco3)nn12` (racemic): the Ki is 20 nM (antagonist) at Adenosine receptor A2a and above 1000 nM on Adenosine receptor A1.
